This note sets out measurements from paper PMC6429710, “Structure–activity relationships in a series of antiplasmodial thieno[2,3-b]pyridines” (Malaria Journal, 2019).

Where two headings read alike, the source gives them in different places.

Experiment [1] concerns the target T1, PfGSK-3 (Plasmodium falciparum, UniProt O77344).
T1 construct: 6xHis; made in house; host or cells: Escherichia coli C41
T1 sequence (O77344 1-440): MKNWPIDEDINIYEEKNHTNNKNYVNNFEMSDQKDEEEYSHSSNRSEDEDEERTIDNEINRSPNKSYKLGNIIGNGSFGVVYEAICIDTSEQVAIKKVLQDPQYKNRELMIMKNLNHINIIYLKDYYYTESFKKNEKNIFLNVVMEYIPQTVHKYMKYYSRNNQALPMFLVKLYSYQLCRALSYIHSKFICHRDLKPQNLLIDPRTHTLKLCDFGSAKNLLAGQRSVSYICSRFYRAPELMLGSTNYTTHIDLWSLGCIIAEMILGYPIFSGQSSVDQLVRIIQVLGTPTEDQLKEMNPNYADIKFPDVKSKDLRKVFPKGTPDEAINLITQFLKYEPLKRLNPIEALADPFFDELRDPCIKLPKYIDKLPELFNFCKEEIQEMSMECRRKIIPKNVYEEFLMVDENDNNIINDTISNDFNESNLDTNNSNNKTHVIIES
Nature of the experiment: biochemical. In kind it is biochemical. How it is done: PfGSK-3 was cloned into pOPIN F expression vector [41] using ligation independent cloning (InFusion, Takara Clontech). Expression vector was transformed into Escherichia coli C41 and expression of recombinant PfGSK3-6xHis was induced by incubation with 1 mM IPTG at 16 °C overnight.
Kinase activity was measured using Kinase-Glo Plus Luminescent Kinase Assay (Promega). 20 ng recombinant GSK-3 were incubated for 30 min at 30 °C in the presence of 12 μM GS-1 peptide substrate ([…]pSEDEEE, pS stands for phosphorylated serine, Biaffin GmbH & Co KG/proteinkinase.de) and 6 μM ATP (ultra pure, Promega) in a total volume of 5 μL kinase reaction buffer (40 mM Tris/HCl pH 7.5; 20 mM MgCl2; 0.1 mg/mL BSA). Kinase reaction mix was transferred to a solid white 384 well plate (NUNC, Thermo Scientific) and kinase reaction was stopped by adding 5 μL RT Kinase-Glo reagent. After 10 min luminescence was measured in an EnVision multilabel plate reader (Perkin Elmer, integration time 0.5 s/well). […] All samples were normalized to a negative control (reaction without kinase). Data points were plotted into Graphpad Prism, normalized to a DMSO control and IC50 values were calculated using nonlinear regression.

Experiment [2] deals with T1, PfGSK-3. In kind it is biochemical. The following applies: 15 µM ATP; mean of two determinations, range in brackets; read-out: IC50 [µM], PfGSK-3 (radiometric). How it is done: Recombinant GST-PfGSK-His was expressed in Rosetta 2 (DE3) cells and purified on cobalt affinity resin as described previously. Recombinant PfGSK-3 ([…]) was assayed with 48 µM GS-1 peptide as a substrate, in 25 mM Tris–HCl pH 7.5, 10 mM MgCl2, 1 mM EGTA, 1 mM EDTA, 0.5 mg/mL BSA, 5 mM DTT, 2 µg/mL heparin, in the presence of 15 µM [γ-^32P] ATP (3000 Ci/mmol; 1 mCi/mL) (Perkin-Elmer, USA) in a final volume of 25 µL. After 30 min incubation at 30 °C, 8 µL aliquots were spotted onto 1 × 1 cm pieces of P81 phosphocellulose paper (Reaction Biology, Malvern, PA, USA) and 20 s later, the filters were washed five times (for at least 5 min each time) in a solution of 10 mL phosphoric acid/L water. Filters were rinsed in acetone and the dried filters and radioactivity was measured by Cherenkov counting. Blank values were subtracted and activities were expressed in percentage of the maximal activity, i.e. in the absence of inhibitors. Controls were performed with appropriate dilutions of dimethylsulfoxide.

The target of another experiment is HsGSK-3 (Homo sapiens, UniProt P49841). As to the kind of experiment: Kinase-Glo Plus assay for inhibition of HsGSK-3. The class given is biochemical. The following applies: 6 µM ATP; mean of three determinations, range in brackets. On the procedure:
Kinase reaction mix was transferred to a solid white 384 well plate (NUNC, Thermo Scientific) and kinase reaction was stopped by adding 5 μL RT Kinase-Glo reagent. After 10 min luminescence was measured in an EnVision multilabel plate reader (Perkin Elmer, integration time 0.5 s/well). […] All samples were normalized to a negative control (reaction without kinase). Data points were plotted into Graphpad Prism, normalized to a DMSO control and IC50 values were calculated using nonlinear regression.
Background: In Kinase-Glo more light means more ATP remaining.

Another experiment concerns HEK293T cells. Nature of the experiment: Cytotoxicity assay on HEK293 cells (PrestoBlue viability). In kind it is cell-based, human. The following applies: cell viability, 48 h; mean of six determinations, range in brackets; read-out: IC50 [µM], HEK 293T. How it is done:
HEK293T cells were seeded into a solid black flat bottom 96 well plate (2.5 × 10^4 cells/well) in 200 μL Dulbecco Modified Eagle Medium (DMEM) supplemented with 10% fetal bovine serum and 1% Pen/Strep (final concentration of 100 U/mL Penicillin and 100 μg/mL Streptomycin). Cells were incubated at 37 °C under 5% CO2. After 18 h the supernatant was removed and fresh DMEM containing serial dilutions of compounds was added. Compounds were solubilized in DMSO (final DMSO concentration in HEK293T culture was 0.5%.) Wells containing 0.5% DMSO served as a negative control. Plates were incubated for further 48 h at 37 °C under 5% CO2. To monitor cell viability the supernatant was removed and cells were incubated with 200 μL 10% PrestoBlue (Invitrogen) in PBS at 37 °C. After 30 min fluorescence (λex = 560 nm, λem = 590 nm) was measured in an EnVision multilable plate reader (Perkin Elmer, integration time 0.1 s/well). Data points were plotted into Graphpad Prism, normalized to the DMSO control and IC50 values were calculated using nonlinear regression.

HsGSK-3, sequence (P49841 whole entry): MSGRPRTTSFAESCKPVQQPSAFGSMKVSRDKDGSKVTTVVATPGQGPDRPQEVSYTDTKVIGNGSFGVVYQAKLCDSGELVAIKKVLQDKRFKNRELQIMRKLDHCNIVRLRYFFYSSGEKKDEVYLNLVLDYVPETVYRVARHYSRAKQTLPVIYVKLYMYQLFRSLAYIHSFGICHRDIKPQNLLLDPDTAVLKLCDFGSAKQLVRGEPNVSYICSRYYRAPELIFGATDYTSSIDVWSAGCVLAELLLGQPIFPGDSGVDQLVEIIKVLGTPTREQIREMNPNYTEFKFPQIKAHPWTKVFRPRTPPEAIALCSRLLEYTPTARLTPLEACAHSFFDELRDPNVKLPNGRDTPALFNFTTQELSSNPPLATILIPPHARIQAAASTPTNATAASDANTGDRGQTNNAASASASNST

As usually defined, the IC50 is the concentration at which inhibition is half-maximal. As for `CN(C)CCN(C)c1ccc(-c2c(C#N)c(N)nc3sc(C(=O)c4cccc(Cl)c4)c(N)c23)c(Cl)c1` [4h], the half-maximal inhibitory concentration (IC50) came out at 0.72 µM at PfGSK-3 [1] (6 µM ATP, mean of three determinations, range in brackets, read-out: IC50 [µM], PfGSK-3 (Kinase Glo Plus)); 0.184 µM at PfGSK-3 [2]; 40.2 µM on HsGSK-3; 5.56 µM in the experiment on HEK293T cells. In addition, the “selectivity index plasmodial versus human GSK-3” value on PfGSK-3 [1] (Kinase Glo Plus assay, PfGSK-3 versus HsGSK-3) is 56.
